Structures can show the parent of a compound that is named as a salt.
Assays:
CDK5/GST-p25 = biological target: T1, CDK5/GST-p25 (Homo sapiens, UniProt Q00535); test: Inhibition of CDK5/GST-p25 kinase activity (ELISA with time-resolved fluorescence readout); type: biochemical
T1 construct: The final construct, encoding for full-length human CDK5; made in house; host or cells: Sf21 insect cells (baculovirus co-infection)
How it was run: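 The substrate, GST-Rb(773-928), was immobilised on plates and phosphorylated for 20 min at 37 °C by 2 ng/ml CDK5/GST-p25 in HEPES pH 7.2 with 10 µM ATP and 10 mM MgCl2. Both proteins were human and co-expressed in insect cells. Ser-780 phosphorylation was read by europium time-resolved fluorescence and converted to IC50.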

His6-GSK-3β = biological target: T2, His6-GSK-3β (Homo sapiens, UniProt P49841); test: Inhibition of His6-GSK-3β kinase activity (ELISA-based format, time-resolved fluorescence readout); type: biochemical; details: class symbols; read-out: GSK3β IC50
T2 construct: made in house; host or cells: Sf21 insect cells (baculovirus)
T2 sequence (P49841 2-419): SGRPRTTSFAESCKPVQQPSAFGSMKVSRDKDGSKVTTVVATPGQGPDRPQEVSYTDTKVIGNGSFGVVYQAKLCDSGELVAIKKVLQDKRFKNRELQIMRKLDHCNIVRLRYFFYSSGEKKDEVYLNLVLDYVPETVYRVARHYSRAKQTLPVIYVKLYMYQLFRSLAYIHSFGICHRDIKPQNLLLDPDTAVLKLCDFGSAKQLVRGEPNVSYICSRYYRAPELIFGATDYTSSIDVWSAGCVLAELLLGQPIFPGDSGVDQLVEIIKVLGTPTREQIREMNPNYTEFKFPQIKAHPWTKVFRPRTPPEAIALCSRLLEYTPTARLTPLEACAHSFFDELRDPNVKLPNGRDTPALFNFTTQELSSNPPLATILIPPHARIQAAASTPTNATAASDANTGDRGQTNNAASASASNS
How it was run: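 Plate-bound recombinant GST-Rb substrate was phosphorylated for 30 min at 37° C by baculovirus-expressed His6-GSK-3β (200 ng/ml) at 20 μM ATP, 10 mM MgCl2, 2.5% DMSO. Europium time-resolved fluorescence of anti-phospho-Ser780 Rb signal gave inhibition, fitted to IC50.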

T1 sequence (Q00535 whole entry): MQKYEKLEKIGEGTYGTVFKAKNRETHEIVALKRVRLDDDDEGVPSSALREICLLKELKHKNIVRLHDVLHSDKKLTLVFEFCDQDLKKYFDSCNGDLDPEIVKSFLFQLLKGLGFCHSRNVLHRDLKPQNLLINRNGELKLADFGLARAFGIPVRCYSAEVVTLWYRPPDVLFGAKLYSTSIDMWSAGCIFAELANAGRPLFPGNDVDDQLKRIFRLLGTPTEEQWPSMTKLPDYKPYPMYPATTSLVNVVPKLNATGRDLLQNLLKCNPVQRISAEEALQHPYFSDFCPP
T1 sequence (Q15078 108-307 partner limits assumed): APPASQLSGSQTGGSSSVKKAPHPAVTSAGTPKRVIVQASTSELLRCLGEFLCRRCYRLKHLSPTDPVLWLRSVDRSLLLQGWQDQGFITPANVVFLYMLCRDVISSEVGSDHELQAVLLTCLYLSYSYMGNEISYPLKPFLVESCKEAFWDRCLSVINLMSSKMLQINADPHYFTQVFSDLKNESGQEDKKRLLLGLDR

| melting point | IC50 (CDK5/GST-p25; class symbols) [nM] | IC50 (His6-GSK-3β) [nM] | IC50 (CDK5/GST-p25; numeric bounds) [nM] | SMILES |
| --- | --- | --- | --- | --- |
| 232 to 236 °C |  |  |  | CNCCCNc1nc(C2C(=O)Nc3ccc(Br)cc32)c2cn(CCOC)nc2n1 (stereo not shown) (as salt: hydrochloride) [Example 226, 5-Bromo-3-[2-(2-methoxy-ethyl)-6-(3-methylamino-propylamino)-2H-pyrazolo[3,4-d]pyrimdin-4-yl]-1,3-dihydro-indol-2-one] |
| > 300 °C |  |  |  | Cn1cc2c(C3C(=O)Nc4ccc(Br)cc43)nc(Cl)nc2n1 (stereo not shown) [Example 300, 5-Bromo-3-(6-chloro-2-methyl-2H-pyrazolo[3,4-d]pyrimidin-4-yl)-1,3-dihydro-indol-2-one] |
| 248 to 251 °C |  |  |  | COCCn1cc2c(C3C(=O)Nc4ccc(Br)cc43)nc(NCCC3CCNCC3)nc2n1 (stereo not shown) (as salt: hydrochloride) [Example 227, 5-Bromo-3-[2-(2-methoxy-ethyl)-6-(2-piperidin-4-yl-ethylamino)-2H-pyrazolo[3,4-d]pyrimidin-4-yl]-1,3-dihydro-indol-2-one] |
| 271 to 273 °C |  |  |  | CCCn1cc2c(C3C(=O)Nc4ccc(Br)cc43)nc(NCCCNC)nc2n1 (stereo not shown) (as salt: hydrochloride) [Example 201, 5-Bromo-3-[6-(3-methylamino-propylamino)-2-propyl-2H-pyrazolo [3,4-d]pyrimidin-4-yl]-1,3-dihydro-indol-2-one hydrochloride] |
| 260 to 262 °C |  |  |  | CNCCCNc1nc(C2C(=O)Nc3ccc(C(F)(F)F)cc32)c2cn(C3CCCC3)nc2n1 (stereo not shown) (as salt: hydrochloride) [Example 253, 3-[2-Cyclopentyl-6-(3-methylamino-propylamino)-2H-pyrazolo [3,4-d]pyrimidin-4-yl]-5-trifluoromethyl-1,3-dihydro-indol-2-one hydrochloride salt] |
| > 300 °C |  |  |  | CCCn1cc2c(C3C(=O)Nc4ccc(C#N)cc43)nc(Cl)nc2n1 (stereo not shown) [Example 183, 3-(6-Chloro-2-propyl-2H-pyrazolo [3,4-d]pyrimidin-4-yl)-2-oxo-2,3-dihydro-1H-indole-5-carbonitrile] |
| 267 °C (dec.) |  |  |  | CCCCCn1cc2c(C3C(=O)Nc4ccc(C(F)(F)F)cc43)nc(Cl)nc2n1 (stereo not shown) |
| 230 to 236 °C (dec.) |  |  |  | COC[C@H]1C[C@@H](n2cnc3c(C4C(=O)Nc5ccc(C#N)cc54)ncnc32)[C@H](O)[C@@H]1O (stereo partly drawn) [Example 29, 3-[9-((1R,2S,3R,4R)-2,3-Dihydroxy-4-methoxymethyl-cyclopentyl)-9H-purin-6-yl]-2-oxo-2,3-dihydro-1H-indole-5-carbonitrile] |
| 275 to 277 °C |  |  |  | CCOCCn1cc2c(C3C(=O)Nc4ccc(Cl)cc43)nc(NCCCNC)nc2n1 (stereo not shown) (as salt: hydrochloride) [Example 215, 5-Chloro-3-[2-(2-ethoxy-ethyl)-6-(3-methylamino-propylamino)-2H-pyrazolo [3,4-d]pyrimidin-4-yl]-1,3-dihydro-indol-2-one] |
| 270 to 273 °C |  |  |  | COCCn1cc2c(C3C(=O)Nc4ccc(Br)cc43)nc(NCCC3CCCNC3)nc2n1 (stereo not shown) (as salt: hydrochloride) [Example 228, 5-Bromo-3-[2-(2-methoxy-ethyl)-6-(2-piperidin-3-yl-ethylamino)-2H-pyrazolo[3,4-d]pyrimidin-4-yl]-1,3-dihydro-indol-2-one] |
| 184 to 186 °C |  |  |  | CCCn1cc2c(C3(F)C(=O)Nc4ccc(Br)cc43)ncnc2n1 (stereo not shown) [Example 383, 5-Bromo-3-fluoro-3-(2-propyl-2H-pyrazolo[3,4-d]pyrimidin-4-yl)-1,3-dihydroindol-2-one] |
| 190 to 192 °C |  |  |  | CN(C)CCNc1nc(C2C(=O)Nc3ccc(Br)cc32)c2cn(C3CCCC3)nc2n1 (stereo not shown) (as salt: TFA) [Example 370, 5-Bromo-3-[2-cyclopentyl-6-(2-dimethylamino-ethylamino)-2H-pyrazolo [3,4-d]pyrimidin-4-yl]-1,3-dihydro-indol-2-one] |
|  | > 10000 | < 300 |  | CN(C)CCN1CCN(c2nc(C3C(=O)Nc4ccc(Cl)cc43)c3cn(C4CCCC4)nc3n2)CC1 (stereo not shown) [Example 144, 5-Chloro-3-{2-cyclopentyl-6-[4-(2-dimethylamino-ethyl)-piperazin-1-yl]-2H-pyrazolo[3,4-d]pyrimidin-4-yl}-1,3-dihydro-indol-2-one] |
|  | < 300 | < 300 |  | CCCn1cc2c(C3C(=O)Nc4ccc(Br)cc43)nc(NC[C@@H]3CCCO3)nc2n1 (stereo partly drawn) [Example 367, 5-Bromo-3-(2-propyl-6-{[(S)-1-(tetrahydro-furan-2-yl)methyl]-amino}-2H-pyrazolo [3,4-d]pyrimidin-4-yl)-1,3-dihydro-indol-2-one] |
|  |  | > 10000 | > 3000 | O=C1Nc2ccc(Br)cc2C1c1nc(NCc2ccc(Cl)nc2)nc2c1CCC2 (stereo not shown) [Example 338, 5-Bromo-3-{2-[(6-chloro-pyridin-3-ylmethyl)-amino]-6,7-dihydro-5H-cyclopentapyrimidin-4-yl}-1,3-dihydro-indol-2-one] |
|  | > 10000 | > 10000 |  | O=C1Nc2ccc(Br)cc2C1c1nc(NCc2ccccn2)nc2c1CCC2 (stereo not shown) [Example 339, 5-Bromo-3-{2-[(pyridin-2-ylmethyl)-amino]-6,7-dihydro-5H-cyclopentapyrimidin-4-yl}-1,3-dihydro-indol-2-one] |
|  |  | < 300 | > 3000 | CCCn1cc2c(C3C(=O)Nc4ccc(Br)cc43)nc(NC[C@@H]3CCCN3)nc2n1 (stereo partly drawn) [Example 361, 5-Bromo-3-{2-propyl-6-[((S)-1-pyrrolidin-2-ylmethyl)-amino]-2H-pyrazolo[3,4-d]pyrimidin-4-yl}-1,3-dihydro-indol-2-one] |
|  | < 300 | < 300 |  | N#Cc1ccc2c(c1)C(c1nc(NCCc3cccnc3)nc3nn(C4CCCC4)cc13)C(=O)N2 (stereo not shown) [Example 114, 3-(2-cyclopentyl-6-(2-pyridin-3-yl-ethylamino)-2H-pyrazolo[3,4-d]pyrimidin-4-yl)-2-oxo-2,3-dihydro-1H-indole-5-carbonitrile] |
|  | < 300 | < 300 |  | CCCn1cc2c(C3C(=O)Nc4ccc(Br)cc43)nc(NCCC(F)(F)F)nc2n1 (stereo not shown) [Example 192, 5-Bromo-3-[2-propyl-6-(3,3,3-trifluoro-propylamino)-2H-pyrazolo[3,4-d]pyrimidin-4-yl]-1,3-dihydro-indol-2-one] |
|  | < 300 | < 300 |  | N#Cc1ccc2c(c1)C(c1nc(NCc3ccc(C(F)(F)F)nc3)nc3nn(C4CCCC4)cc13)C(=O)N2 (stereo not shown) [Example 173, 3-{2-Cyclopentyl-6-[(6-trifluoromethyl-pyridin-3-ylmethyl)-amino]-2H-pyrazolo [3,4-d]pyrimidin-4-yl}-2-oxo-2,3-dihydro-1H-indole-5-carbonitrile] |
|  | < 300 | < 300 |  | N#Cc1ccc2c(c1)C(c1nc(NCCCN3CCOCC3)nc3nn(C4CCCC4)cc13)C(=O)N2 (stereo not shown) [Example 139, 3-[2-cyclopentyl-6-(3-morpholin-4-yl-propylamino)-2H-pyrazolo[3,4-d]pyrimidin-4-yl]-2-oxo-2,3-dihydro-1H-indole-5-carbonitrile] |
|  | 300 to 3000 | 300 to 3000 |  | N#Cc1ccc2c(c1)C(c1nc(NCc3ccncc3)nc3c1CCC3)C(=O)N2 (stereo not shown) [Example 347, 2-Oxo-3-{2-[(pyridin-4-ylmethyl)-amino]-6,7-dihydro-5H-cyclopentapyrimidin-4-yl}-2,3-dihydro-1H-indole-5-carbonitrile] |
|  | > 10000 | 300 to 3000 |  | O=C1Nc2ccc(Br)cc2C1c1nc(NCCCN2CCOCC2)nc2c1CCC2 (stereo not shown) [Example 331, 5-Bromo-3-[2-(3-morpholin-4-yl-propylamino)-6,7-dihydro-5H-cyclopentapyrimidin-4-yl]-1,3-dihydro-indol-2-one] |
|  | < 300 | < 300 |  | N#Cc1ccc2c(c1)C(c1nc(NCc3ccccn3)nc3nn(C4CCCC4)cc13)C(=O)N2 (stereo not shown) [Example 123, 3-{2-cyclopentyl-6-[(pyridin-2-yl-methyl)amino]-2H-pyrazolo[3,4-d]pyrimidin-4-yl}-2-oxo-2,3-dihydro-1H-indole-5-carbonitrile] |
|  |  | 300 to 3000 | > 3000 | CCCn1cc2c(C3C(=O)Nc4ccc(Br)cc43)nc(N[C@H]3CCNC3)nc2n1 (stereo partly shown) [Example 362] |
|  | 300 to 3000 | 300 to 3000 |  | CN(C)CCCNc1nc2c(c(C3C(=O)Nc4ccc(C#N)cc43)n1)CCC2 (stereo not shown) [Example 342, 3-[2-(3-Dimethylamino-propylamino)-6,7-dihydro-5H-cyclopentapyrimidin-4-yl]-2-oxo-2,3-dihydro-1H-indole-5-carbonitrile] |
|  | 300 to 3000 | 300 to 3000 |  | N#Cc1ccc2c(c1)C(c1nc(NCCCN3CCOCC3)nc3c1CCC3)C(=O)N2 (stereo not shown) [Example 340, 3-[2-(3-Morpholin-4-yl-propylamino)-6,7-dihydro-5H-cyclopentapyrimidin-4-yl]-2-oxo-2,3-dihydro-1H-indole-5-carbonitrile] |
|  | > 10000 | > 10000 |  | O=C1Nc2ccc(F)cc2C1c1nc(NCCN2CCOCC2)nc2c1CCC2 (stereo not shown) [Example 318, 5-Fluoro-3-[2-(2-morpholin-4-ylethylamino)-6,7-dihydro-5H-cyclopentapyrimidin-4-yl]-1,3-dihydro-indol-2-one] |
|  | < 300 | < 300 |  | CNCCCNc1nc(C2C(=O)Nc3ccc(Br)cc32)c2cn(CCOC)nc2n1 (stereo not shown) [Example 226, 5-Bromo-3-[2-(2-methoxy-ethyl)-6-(3-methylamino-propylamino)-2H-pyrazolo[3,4-d]pyrimdin-4-yl]-1,3-dihydro-indol-2-one] |

Reference: patent US8354414B2, “Substituted bicyclic pyrimidines” (Cephalon, Inc, priority 2006, dated 2013)
